# Results reported in patent US20240057606A1, “MOLECULES HAVING CERTAIN PESTICIDAL UTILITIES, AND INTERMEDIATES, COMPOSITIONS, AND PROCESSES RELATED THERETO” (priority 2020, published 2024).
# Legend:
# Format in all cases: in vivo
# [1] = tested on: Yellow Fever Mosquito (Aedes aegypti, "YFM"); assay: Bioassay on yellow fever mosquito larvae, 96-well plate assay; conditions: 4000 ppm DMSO master solution diluted with 90:10 water:acetone; about 1 day-old larvae; room temperature; scored after 3 days
# Protocol: Bioassays On Yellow Fever Mosquito (Aedes aegypti, “YFM”)
# Certain molecules disclosed in this document were tested against YFM using procedures described in the following paragraph. In the reporting of the results, the “YFM Rating Table” was used (See Table Section).
# Master plates containing 400 μg of a molecule dissolved in 100 μL of dimethyl sulfoxide (DMSO) (equivalent to a 4000 ppm solution) are used. A master plate of assembled molecules contains 15 μL per well. To this plate, 135 μL of a 90:10 water:acetone mixture is added to each well. A robot (Biomek® NXP Laboratory Automation Workstation) is programmed to dispense 15 μL aspirations from the master plate into an empty 96-well shallow plate (“daughter” plate). There are 6 reps (“daughter” plates) created per master. The created daughter plates are then immediately infested with YFM larvae.
# The day before plates are to be treated, mosquito eggs are placed in Millipore water containing liver powder to begin hatching (4 g. into 400 mL). After the daughter plates are created using the robot, they are infested with 220 μL of the liver powder/larval mosquito mixture (about 1 day-old larvae). After plates are infested with mosquito larvae, a non-evaporative lid is used to cover the plate to reduce drying. Plates are held at room temperature for 3 days prior to grading. After 3 days, each well is observed and scored based on mortality.
# [2] = tested on: Cabbage Looper (Trichoplusia ni, "CL"); assay: Bioassay on cabbage looper, 128-well diet tray assay; conditions: 168 h, 50 μg/cm^2 of test compound on artificial diet, second instar larvae, 25° C., five to seven days, average of eight wells, read-out: CL % Control (or Mortality) rating
# Protocol: (§1) Bioassays on Beet Armyworm (Spodoptera exigua, “BAW”) and Cabbage Looper (Trichoplusia ni, “CL”)
# (§2) Certain molecules disclosed in this document were tested against BAW and CL using procedures described in the following examples. In the reporting of the results, the “BAW & CL Rating Table” was used (See Table Section).
# Bioassays on CL were conducted using a 128-well diet tray assay. one to five second instar CL larvae were placed in each well (3 mL) of the diet tray that had been previously filled with 1 mL of artificial diet to which 50 μg/cm^2 of the test compound (dissolved in 50 μL of 90:10 acetone-water mixture) had been applied (to each of eight wells) and then allowed to dry. Trays were covered with a clear self-adhesive cover and held at 25° C., 14:10 light-dark cycle for five to seven days. Percent mortality was recorded for the larvae in each well; activity in the eight wells was then averaged. The results are indicated in the table entitled “Table ABC: Biological Results” (See Table Section).
# [3] = tested on: Beet Armyworm (Spodoptera exigua, "BAW"); assay: Bioassay on beet armyworm, 128-well diet tray assay; conditions: 168 h, 50 μg/cm^2 of test compound on artificial diet, second instar larvae, 25° C., five to seven days, average of eight wells, read-out: BAW % Control (or Mortality) rating
# Protocol: as §1, §2
# Bioassays on BAW were conducted using a 128-well diet tray assay. one to five second instar BAW larvae were placed in each well (3 mL) of the diet tray that had been previously filled with 1 mL of artificial diet to which 50 μg/cm^2 of the test compound (dissolved in 50 μL of 90:10 acetone-water mixture) had been applied (to each of eight wells) and then allowed to dry. Trays were covered with a clear self-adhesive cover and held at 25° C., 14:10 light-dark cycle for five to seven days. Percent mortality was recorded for the larvae in each well; activity in the eight wells was then averaged. The results are indicated in the table entitled “Table ABC: Biological Results” (See Table Section).
Compound,YFM % Control (or Mortality) rating [1],mortality at 50 µg/cm2 [2] [%],mortality at 50 µg/cm2 [3] [%]
"Cc1cc(-c2ncn(-c3ccc(OC(F)(F)C(F)(F)F)cc3)n2)ccc1NC(=O)/N=C1\SCC(=O)N1c1cccc2occc12 [F22, (Z)-1-(3-(Benzofuran-4-yl)-4-oxothiazolidin-2-ylidene)-3-(2-methyl-4-(1-(4-(perfluoroethoxy)phenyl)-1H-1,2,4-triazol-3-yl)phenyl)urea]",A (80-100),50 to 100,50 to 100
"O=C(/N=C1\SCC(=O)N1c1cccc2occc12)Nc1ccc(-c2ncn(-c3ccc(C(F)(F)C(F)(F)F)cc3)n2)cc1F [F20, (Z)-1-(3-(Benzofuran-4-yl)-4-oxothiazolidin-2-ylidene)-3-(2-fluoro-4-(1-(4-(perfluoroethyl)phenyl)-1H-1,2,4-triazol-3-yl)phenyl)urea]",D (No activity noticed in this bioassay),50 to 100,50 to 100
"O=C(/N=C1\SCC(=O)N1c1cccc2ccoc12)Nc1ccc(-c2ncn(-c3ccc(C(F)(F)C(F)(F)F)cc3)n2)cc1F [F21, (Z)-1-(3-(Benzofuran-7-yl)-4-oxothiazolidin-2-ylidene)-3-(2-fluoro-4-(1-(4-(perfluoroethyl)phenyl)-1H-1,2,4-triazol-3-yl)phenyl)urea]",A (80-100),50 to 100,50 to 100
"Cc1cc(-c2ncn(-c3ccc(OC(F)(F)C(F)(F)F)cc3)n2)ccc1NC(=O)/N=C1\SCC(=O)N1c1cccc2ccoc12 [F23, (Z)-1-(3-(Benzofuran-7-yl)-4-oxothiazolidin-2-ylidene)-3-(2-methyl-4-(1-(4-(perfluoroethoxy)phenyl)-1H-1,2,4-triazol-3-yl)phenyl)urea]",A (80-100),50 to 100,50 to 100
"Cc1cc(-c2ncn(-c3ccc(OC(F)(F)C(F)(F)F)cc3)n2)ccc1NC(=O)/N=C1\SCC(=O)N1c1cccc2c1ccn2C [F27, (Z)-1-(3-(1-Methyl-1H-indol-4-yl)-4-oxothiazolidin-2-ylidene)-3-(2-methyl-4-(1-(4-(perfluoroethoxy)phenyl)-1H-1,2,4-triazol-3-yl)phenyl)urea]",A (80-100),50 to 100,50 to 100
"Cc1cc(-c2ncn(-c3ccc(OC(F)(F)C(F)(F)F)cc3)n2)ccc1NC(=O)/N=C1\SCC(=O)N1c1cccc2ncccc12 [F32, (Z)-1-(2-Methyl-4-(1-(4-(perfluoroethoxy)phenyl)-1H-1,2,4-triazol-3-yl)phenyl)-3-(4-oxo-3-(quinolin-5-yl)thiazolidin-2-ylidene)urea]",A (80-100),50 to 100,50 to 100
"O=C(/N=C1\SCC(=O)N1c1cccc2c1CCOC2)Nc1ccc(-c2ncn(-c3ccc(OC(F)(F)F)cc3)n2)cc1F [F18, (Z)-1-(2-Fluoro-4-(1-(4-(trifluoromethoxy)phenyl)-1H-1,2,4-triazol-3-yl)phenyl)-3-(3-(isochroman-5-yl)-4-oxothiazolidin-2-ylidene)urea]",A (80-100),50 to 100,50 to 100
"CN1CCOc2c1cccc2N1C(=O)CS/C1=N\C(=O)Nc1ccc(-c2ncn(-c3ccc(OC(F)(F)F)cc3)n2)cc1F [F12, (Z)-1-(2-Fluoro-4-(1-(4-(trifluoromethoxy)phenyl)-1H-1,2,4-triazol-3-yl)phenyl)-3-(3-(4-methyl-3,4-dihydro-2H-benzo[b][1,4]oxazin-8-yl)-4-oxothiazolidin-2-ylidene)urea]",A (80-100),50 to 100,50 to 100
"Cn1ccc2c(N3C(=O)CS/C3=N\C(=O)Nc3ccc(-c4ncn(-c5ccc(OC(F)(F)F)cc5)n4)cc3F)cccc21 [F15, (Z)-1-(2-Fluoro-4-(1-(4-(trifluoromethoxy)phenyl)-1H-1,2,4-triazol-3-yl)phenyl)-3-(3-(1-methyl-1H-indol-4-yl)-4-oxothiazolidin-2-ylidene)urea]",A (80-100),50 to 100,50 to 100
"Cn1ccc2ccc(N3C(=O)CS/C3=N\C(=O)Nc3ccc(-c4ncn(-c5ccc(OC(F)(F)F)cc5)n4)cc3F)cc21 [F14, (Z)-1-(2-Fluoro-4-(1-(4-(trifluoromethoxy)phenyl)-1H-1,2,4-triazol-3-yl)phenyl)-3-(3-(1-methyl-1H-indol-6-yl)-4-oxothiazolidin-2-ylidene)urea]",A (80-100),50 to 100,50 to 100
"O=C(/N=C1\SCC(=O)N1c1cccc2ccccc12)Nc1ccc(-c2ncn(-c3ccc(OC(F)(F)F)cc3)n2)cc1F [F16, (Z)-1-(2-Fluoro-4-(1-(4-(trifluoromethoxy)phenyl)-1H-1,2,4-triazol-3-yl)phenyl)-3-(3-(naphthalen-1-yl)-4-oxothiazolidin-2-ylidene)urea]",A (80-100),50 to 100,50 to 100
"O=C(/N=C1\SCC(=O)N1c1ccc2ccccc2c1)Nc1ccc(-c2ncn(-c3ccc(OC(F)(F)F)cc3)n2)cc1F [F13, (Z)-1-(2-Fluoro-4-(1-(4-(trifluoromethoxy)phenyl)-1H-1,2,4-triazol-3-yl)phenyl)-3-(3-(naphthalen-2-yl)-4-oxothiazolidin-2-ylidene)urea]",D (No activity noticed in this bioassay),50 to 100,50 to 100
"O=C(/N=C1\SCC(=O)N1c1cccc2ncccc12)Nc1ccc(-c2ncn(-c3ccc(C(F)(F)F)cc3)n2)cc1F [F33, (Z)-1-(2-Fluoro-4-(1-(4-(trifluoromethyl)phenyl)-1H-1,2,4-triazol-3-yl)phenyl)-3-(4-oxo-3-(quinolin-5-yl)thiazolidin-2-ylidene)urea]",A (80-100),50 to 100,50 to 100
